Patent US11504382B2, “Tricyclic inhibitors of Hepatitis B virus” (Antios Therapeutics, Inc., priority 2018, dated 2022)
Where two headings read alike, the source gives them in different places.

Tested on: HBV
Test: HBV inhibition assay in HepAD38 cells (extracellular HBV DNA by direct qPCR)
Assay type: cell-based, Hepatitis B virus
Conditions: 96 hours; for EC50: 8-point dose-response curve, read-out: HBV inh EC50

For `Cn1cc2c(c1C(=O)Nc1cc(F)c(F)c(F)c1)OC[C@H]1CN(c3ncc(O)cn3)C[C@H]1NS2(=O)=O` (relative stereo) [Example E84, cis-2-(5-hydroxypyrimidin-2-yl)-7-methyl-N-(3,4,5-trifluorophenyl)-2,3,3a,4,10,10a-hexahydro-1H,7H-dipyrrolo[3,4-b:3′,4′-f][1,4,5]oxathiazocine-8-carboxamide 5,5-dioxide], the EC50 (Hepatitis B virus) was under 1 µM.

`Cc1cc(NC(=O)c2c3c(cn2C)S(=O)(=O)N[C@@H]2CCN(C(=O)C4(C)COC4)C[C@H]2CO3)ccc1F` (relative stereo) [Example E131, Trans-N-(4-fluoro-3-methylphenyl)-2-methyl-8-(3-methyloxetane-3-carbonyl)-5,5a,6,7,8,9,9a,10-octahydro-2H-pyrido[4,3-f]pyrrolo[3,4-b][1,4,5]oxathiazocine-1-carboxamide 4,4-dioxide] showed an EC50 (Hepatitis B virus) of under 1 µM.

With `Cc1cc(NC(=O)c2c3c(cn2C)S(=O)(=O)NC2CCN(C(=O)C45CC(CO4)C5)CC2CO3)ccc1F` (racemic) [Example E133, Trans-8-(2-oxabicyclo[2.1.1]hexane-1-carbonyl)-N-(4-fluoro-3-methylphenyl)-2-methyl-5,5a,6,7,8,9,9a,10-octahydro-2H-pyrido[4,3-f]pyrrolo[3,4-b][1,4,5]oxathiazocine-1-carboxamide 4,4-dioxide] the EC50 was under 1 µM.

For `Cc1cc(NC(=O)c2c3c(cn2C)S(=O)(=O)N[C@H]2CN(C(=O)[C@H]4CCCO4)C[C@H]2CO3)ccc1F` [Example E100, (3aR,10aR)—N-(4-fluoro-3-methylphenyl)-7-methyl-2-((R)-tetrahydrofuran-2-carbonyl)-2,3,3a,4,10,10a-hexahydro-1H,7H-dipyrrolo[3,4-b:3′,4′-f][1,4,5]oxathiazocine-8-carboxamide 5,5-dioxide], the EC50 (Hepatitis B virus) was under 1 µM.

With “ethyl 7-methyl-8-((3,4,5-trifluorophenyl)carbamoyl)-3a,4,10,10a-tetrahydro-1H,7H-dipyrrolo[3,4-b:3′,4′-f][1,4,5]oxathiazocine-2(3H)-carboxylate 5,5-dioxide (3aS,10aS) [Example E32]” the “Anti HBV Activity (conc μM)” value (0.1 μM, relative to non-treated reference) was “A (0.1) (HBV inhibition greater than 50% at the concentration indicated in the table)” and the EC50 was under 1 µM.

With `CCOC(=O)N1CC2COc3c(cn(C)c3C(=O)Nc3cc(F)c(F)c(F)c3)S(=O)(=O)NC2C1` (racemic) [Example E10, Cis-Ethyl 7-methyl-8-((3,4,5-trifluorophenyl)carbamoyl)-3a,4,10,10a-tetrahydro-1H,7H-dipyrrolo[3,4-b:3′,4′-f][1,4,5]oxathiazocine-2(3H)-carboxylate 5,5-dioxide] the inhibition at 0.5 µM (Hepatitis B virus, 0.5 μM, relative to non-treated reference, read-out: Anti HBV Activity (conc μM)) was over 50% and the EC50 (Hepatitis B virus) was under 1 µM.

Compound `CC(=O)OCC(=O)N1CC2COc3c(cn(C)c3C(=O)Nc3cc(F)c(F)c(F)c3)S(=O)(=O)NC2C1` (stereo not drawn) [Example E70, cis-2-(7-methyl-5,5-dioxido-8-((3,4,5-trifluorophenyl)carbamoyl)-3a,4,10,10a-tetrahydro-1H,7H-dipyrrolo[3,4-b:3′,4′-f][1,4,5]oxathiazocin-2(3H)-yl)-2-oxoethyl acetate] has an inhibition at 0.1 µM (Hepatitis B virus, 0.1 μM, relative to non-treated reference, read-out: Anti HBV Activity (conc μM)) of under 50%.

`Cc1noc(C(=O)N2C[C@H]3COc4c(cn(C)c4C(=O)Nc4ccc(F)c(C)c4)S(=O)(=O)N[C@H]3C2)n1` [Example E103, (3aR,10aR)—N-(4-fluoro-3-methylphenyl)-7-methyl-2-(3-methyl-1,2,4-oxadiazole-5-carbonyl)-2,3,3a,4,10,10a-hexahydro-1H,7H-dipyrrolo[3,4-b:3′,4′-f][1,4,5]oxathiazocine-8-carboxamide 5,5-dioxide] was tested, and the EC50 (Hepatitis B virus) was under 1 µM.

`Cc1nnc(C(=O)N2C[C@H]3COc4c(cn(C)c4C(=O)Nc4ccc(F)c(C)c4)S(=O)(=O)N[C@H]3C2)o1` [Example E98, (3aR,10aR)—N-(4-fluoro-3-methylphenyl)-7-methyl-2-(5-methyl-1,3,4-oxadiazole-2-carbonyl)-2,3,3a,4,10,10a-hexahydro-1H,7H-dipyrrolo[3,4-b:3′,4′-f][1,4,5]oxathiazocine-8-carboxamide 5,5-dioxide] was tested, and the EC50 (Hepatitis B virus) was under 1 µM.
